Here are results for 5 molecules from publication PMC6139576 (Journal of Medicinal Chemistry, 2018).

For one assay, the target named is human EAAT1 (hEAAT1) (Homo sapiens, UniProt P43003). Put plainly: [3H]-D-Asp uptake assay, hEAAT1-HEK293 cells. The assay is classed as cell-based.
Another assay deals with T1, rat EAAT4 (rEAAT4) (Rattus norvegicus, UniProt O35921).
T1 sequence (O35921 1-561): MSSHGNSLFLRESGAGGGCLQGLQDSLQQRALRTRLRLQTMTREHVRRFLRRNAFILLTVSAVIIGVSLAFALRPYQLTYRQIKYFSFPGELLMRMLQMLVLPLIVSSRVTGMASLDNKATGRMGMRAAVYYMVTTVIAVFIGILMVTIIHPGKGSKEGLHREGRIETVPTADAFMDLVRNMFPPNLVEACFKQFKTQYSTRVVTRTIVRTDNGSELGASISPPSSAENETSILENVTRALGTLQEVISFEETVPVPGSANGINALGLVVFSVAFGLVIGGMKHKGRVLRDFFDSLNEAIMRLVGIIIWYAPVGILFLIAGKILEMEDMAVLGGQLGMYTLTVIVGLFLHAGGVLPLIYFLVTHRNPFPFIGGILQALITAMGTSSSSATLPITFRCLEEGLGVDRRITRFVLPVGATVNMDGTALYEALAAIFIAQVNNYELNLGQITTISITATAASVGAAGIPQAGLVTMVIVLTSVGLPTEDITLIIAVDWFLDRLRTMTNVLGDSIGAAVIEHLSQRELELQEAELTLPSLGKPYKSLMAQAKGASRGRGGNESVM
Put plainly: [3H]-D-Asp uptake assay, rEAAT4-tsA201 cells. The assay is classed as cell-based.

Another assay deals with T2, human EAAT3 (hEAAT3) (Homo sapiens, UniProt P43005).
T2 sequence (P43005 1-524): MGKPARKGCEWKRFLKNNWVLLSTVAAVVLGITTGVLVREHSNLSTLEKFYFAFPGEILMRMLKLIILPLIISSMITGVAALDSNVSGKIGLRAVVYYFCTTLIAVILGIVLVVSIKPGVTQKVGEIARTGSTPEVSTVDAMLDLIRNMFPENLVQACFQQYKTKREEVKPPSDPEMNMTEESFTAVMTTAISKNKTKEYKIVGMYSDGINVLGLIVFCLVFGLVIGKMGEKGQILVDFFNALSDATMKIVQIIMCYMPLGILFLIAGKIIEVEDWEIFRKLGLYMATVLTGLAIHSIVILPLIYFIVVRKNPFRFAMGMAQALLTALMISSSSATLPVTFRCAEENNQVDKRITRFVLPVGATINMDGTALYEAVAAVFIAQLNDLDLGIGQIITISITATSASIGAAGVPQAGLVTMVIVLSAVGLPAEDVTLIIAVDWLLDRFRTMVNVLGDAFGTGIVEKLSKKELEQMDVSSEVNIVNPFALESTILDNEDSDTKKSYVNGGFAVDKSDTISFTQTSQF
Nature of the assay: [3H]-D-Asp uptake assay, hEAAT3-HEK293 cells. It is filed as cell-based. The note with it: hEAAT3 pIC50 ± S.E.M.

A further assay addresses human EAAT2 (hEAAT2) (Homo sapiens, UniProt P43004). Put plainly: [3H]-D-Asp uptake assay, hEAAT2-HEK293 cells. It is filed as cell-based.
In another assay the test system is EAAT3. The settings on record: cited from earlier work.

SMILES strings stand for the structures.

One may read the IC50 as the concentration that gives 50% inhibition. A lower IC50 goes with greater potency.

Sequence of human EAAT1 (hEAAT1) (P43003 whole entry, the tested form may be a part): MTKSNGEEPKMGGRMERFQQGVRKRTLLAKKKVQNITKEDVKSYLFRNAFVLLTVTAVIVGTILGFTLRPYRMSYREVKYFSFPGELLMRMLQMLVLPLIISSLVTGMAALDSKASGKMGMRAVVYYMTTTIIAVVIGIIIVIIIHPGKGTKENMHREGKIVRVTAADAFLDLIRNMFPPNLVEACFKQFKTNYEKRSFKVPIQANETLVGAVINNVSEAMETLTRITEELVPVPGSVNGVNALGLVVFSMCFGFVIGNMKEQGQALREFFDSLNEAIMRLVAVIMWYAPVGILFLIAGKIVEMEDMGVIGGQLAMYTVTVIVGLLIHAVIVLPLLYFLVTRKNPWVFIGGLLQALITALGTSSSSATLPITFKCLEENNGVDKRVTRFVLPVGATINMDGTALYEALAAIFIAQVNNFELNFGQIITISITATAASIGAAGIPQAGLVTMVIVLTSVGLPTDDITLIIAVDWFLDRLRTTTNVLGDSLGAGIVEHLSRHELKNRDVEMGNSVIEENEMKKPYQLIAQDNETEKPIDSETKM
Sequence of human EAAT2 (hEAAT2) (P43004 whole entry, the tested form may be a part): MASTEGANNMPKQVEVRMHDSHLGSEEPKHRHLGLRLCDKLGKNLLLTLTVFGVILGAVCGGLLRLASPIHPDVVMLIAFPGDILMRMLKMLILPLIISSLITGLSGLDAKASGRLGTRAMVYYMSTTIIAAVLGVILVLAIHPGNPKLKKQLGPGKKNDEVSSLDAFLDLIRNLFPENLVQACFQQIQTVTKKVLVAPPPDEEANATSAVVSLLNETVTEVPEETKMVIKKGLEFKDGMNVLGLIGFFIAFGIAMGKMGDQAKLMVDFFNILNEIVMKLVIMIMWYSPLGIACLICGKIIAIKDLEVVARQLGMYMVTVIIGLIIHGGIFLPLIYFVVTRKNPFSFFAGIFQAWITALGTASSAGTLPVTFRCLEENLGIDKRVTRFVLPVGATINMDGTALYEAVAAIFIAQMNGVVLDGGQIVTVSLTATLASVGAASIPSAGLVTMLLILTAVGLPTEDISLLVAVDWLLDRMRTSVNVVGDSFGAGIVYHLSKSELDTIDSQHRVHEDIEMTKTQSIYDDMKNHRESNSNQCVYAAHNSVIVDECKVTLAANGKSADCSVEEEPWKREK

Consider `C#CCO[C@H](C(=O)O)[C@@H](N)C(=O)O` (racemic) [DL-erythro-19c, (DL-erythro)-3-(Prop-2-yn-1-yloxy)aspartate], for which the IC50 is 99 µM at human EAAT1 (hEAAT1) (hEAAT1 IC50, [3H]-D-Asp uptake, HEK293 cells); approximately 100 µM against rat EAAT4 (rEAAT4); 28.2 µM on human EAAT3 (hEAAT3); 82 µM at human EAAT2 (hEAAT2) (hEAAT2 IC50, [3H]-D-Asp uptake, HEK293 cells).
Take `N[C@H](C(=O)O)[C@H](OCC1CC1)C(=O)O` (racemic) [DL-threo-19a, (DL-threo)-3-(Cyclopropylmethoxy)aspartate]: the concentration for half-maximal inhibition (IC50) against rat EAAT4 (rEAAT4) was 15.8 µM; against human EAAT3 (hEAAT3) it was 3.72 µM.
As to `N[C@H](C(=O)O)[C@H](OCc1ccsc1)C(=O)O` (racemic) [DL-threo-19b, (DL-threo)-3-(Thiophen-3-ylmethoxy)aspartate], at rat EAAT4 (rEAAT4), the IC50 amounted to 4.27 µM.
Take `N[C@H](C(=O)O)[C@H](OCc1cccc(NC(=O)Cc2ccc(C(F)(F)F)cc2)c1)C(=O)O` [3d]: the “fold increased IC50 at hEAAT1 relative to L-TFB-TBOA” value at human EAAT1 (hEAAT1) (versus L-TFB-TBOA (3a)) is 5–10 fold. The “fold increased IC50 at rEAAT4 relative to L-TFB-TBOA” value on rat EAAT4 (rEAAT4) (versus L-TFB-TBOA (3a)) was 5–10 fold. At human EAAT2 (hEAAT2) (versus L-TFB-TBOA (3a)), the “fold increased IC50 at hEAAT2 relative to L-TFB-TBOA” value is recorded as 5–10 fold.
In the case of `N[C@H](C(=O)O)[C@H](Cc1ccccc1)C(=O)O` [compound 4, L-threo-3-benzylaspartate], in the assay with EAAT3, the “preference as an inhibitor for EAAT3 over EAAT1 and EAAT2” value is listed as 10 fold.
